Experimental data from patent US7906486B2, “Method of treating or preventing tissue deterioration, injury or damage due to disease of mucosa” (SciClone Pharmaceuticals, Inc., priority 2007, dated 2011).
Where “and” joins values, the source holds several entries; their conditions need not be identical. Equal values may be shown once.

Tested on: oral mucositis induced by cis-platin 5 mg/kg and radiation 35 Gy (left cheek pouch)
Experiment: Oral mucositis induced by a combination of cisplatin and acute radiation in hamsters, mucositis scoring (Example 4, SCI-04)
Format: in vivo, Syrian Golden Hamsters
Design: key to Mucositis score, day 6 / Mucositis score, day 8: 0: Pouch completely healthy. No erythema or vasodilation.; 1: Light to severe erythema and vasodilation. No erosion of mucosa.; 2: Severe erythema and vasodilation. Erosion of superficial aspects of mucosa leaving denuded areas. Decreased stippling of mucosa.; 3: Formation of off-white ulcers in one or more places. Ulcers may have a yellow/gray due to pseudomembrane. Cumulative size of ulcers should equal about ¼ of the pouch. Severe erythema and vasodilation.; 4: Cumulative seize of ulcers should equal about ½ of the pouch. Loss of pliability. Severe erythema and vasodilation.; 5: Virtually all of pouch is ulcerated. Loss of pliability (pouch can only partially be extracted from mouth); key to peak mean mucositis score: standard six-point oral mucositis scale; ulceration = score ≥3
Details: for % Days >=3 / Days <3 / Days >=3: qd, sc, Days −1 to 20; for Days >=3: animal days with mucositis score of three or more
Description: Forty Golden Syrian hamsters were prospectively randomized into four equally sized groups. Mucositis was induced on the left cheek pouch mucosa of golden Syrian hamsters by a single dose of cis-platin at 5 mg/kg given on day −1, and a single dose of radiation administered on day 0 at a dose of 35Gy. Beginning on day −1 and continuing once daily until day 20, SCV-07 was given by sub-cutaneous injection at doses of 10 μg/kg, 100 μg/kg or 1 mg/kg in a volume of 100 μL. Animals' activity and weight were evaluated daily. Beginning on day 6 and continuing on alternate days for the duration of the study, oral mucositis was evaluated using a standard scoring six point scale. The number of days of ulcerative mucositis was evaluated using a Chi-squared test of scores of ≧3 throughout the study, and the individual daily group scores were assessed with a Rank Sum Test.
The chemo-radiation model of oral mucositis in hamsters, developed by the Principal Investigator, has proven to be an accurate, efficient and cost-effective technique to provide a preliminary evaluation of anti-mucositis compounds. In this model, hamsters received a single dose of cis-platin at 5 mg/kg on day −1, followed by a single dose of radiation of 35 Gy to the left cheek pouch on day 0, rather than the single dose of 40 Gy on day 0 that is used in acute radiation studies. The course of mucositis in this model is very similar to the acute radiation model and results in peak mucositis scores approximately 16-18 days following radiation.
Hamsters received a single dose of cis-platin at 5 mg/kg on day −1 by intra-peritoneal injection, followed by a single dose of radiation of 35 Gy to the left cheek pouch on day 0. This was accomplished by anesthetizing the animals and everting the left buccal pouch, while protecting the rest of the animal's bodies with a lead shield. Test materials were given by sub-cutaneous injection once daily as detailed in Table 13. Mucositis was evaluated clinically starting on day 6, and continuing on alternate days until day 28. Test articles were given as from day −1 to day 20.
The grade of mucositis was scored, beginning day 6, and for every second day thereafter, through and including day 28. The effect on mucositis of each drug treatment compared to placebo was assessed according to the following parameters:
On each evaluation day, the number of animals with a blinded mucositis score of ≧3 in each drug treatment group was compared to the control group. Differences were compared on a cumulative basis and statistical significance was determined by chi-square analysis. Efficacy, in this analysis, is defined by a significant reduction in the number of days that a group of animals had ulcerations (scores 3) when compared to the control group.
For each evaluation day the scores of the control group were compared to those of the treated groups using non-parametric rank sum analysis. Treatment success was considered as a statistically significant lowering of scores in the treated group on 2 or more days from day 6 to day 28.
Forty (40) male Syrian Golden Hamsters were given an intraperitoneal injection of 5 mg/kg Cisplatin on day −1. On day 0 all animals were given an acute radiation dose of 35 Gy directed to their left buccal cheek pouch. This was accomplished by anesthetizing the animals and everting the left buccal pouch, while protecting the rest of the animals with a lead shield. Test materials were given by subcutaneous injection once daily as detailed in Table 13. Mucositis was evaluated clinically starting on Day 6, and continued on alternate days until day 28.
In this study, mucositis was induced with a combination of Cis-platin and radiation. Cis-platin was given as a single injection (IP) of 5 mg/kg on day −1. Radiation was given as a single focal dose of 35 Gy on day 0. Radiation was generated with a Philips 160 kVp (kilovolt potential) (18.75-ma) X-ray source at a focal distance of 30 cm, with a 3.0 mm hardened Al filtration system. […]

[1] = printed 100 ug/kg on days -1 to 20 (second such statement, third treated group)

N[C@H](CCC(=O)N[C@@H](Cc1c[nH]c2ccccc12)C(=O)O)C(=O)O [SCV-07, γ-D-glutamyl-L-tryptophan]
P, daily mucositis scores (Mann-Whitney rank sum) vs saline controls (10 ug/kg days -1 to 20, day 22): 0.010
P, daily mucositis scores (Mann-Whitney rank sum) vs saline controls (10 ug/kg days -1 to 20, day 24): 0.022
P, daily mucositis scores (Mann-Whitney rank sum) vs saline controls (10 ug/kg days -1 to 20, day 26): 0.015
P, daily mucositis scores (Mann-Whitney rank sum) vs saline controls (10 ug/kg days -1 to 20, day 28): < 0.001
% of animal days with a mucositis score of 3 or higher (10 ug/kg from day -1 to day 20): 34.2%
P, chi-squared test vs controls, days with score of 3 or higher (10 ug/kg from day -1 to day 20): < 0.001
day of peak mean mucositis score (10 ug/kg from day -1 to day 20): 16
peak mean mucositis score (10 ug/kg from day -1 to day 20): 2.9
% Days >=3 (10 ug/kg): 34.2%
Days <3 (10 ug/kg): 158
Days >=3 (10 ug/kg): 82
P, daily mucositis scores (Mann-Whitney rank sum) vs saline controls (100 ug/kg days -1 to 20, day 6): 0.015
P, daily mucositis scores (Mann-Whitney rank sum) vs saline controls (100 ug/kg days -1 to 20, day 22): 0.003
P, daily mucositis scores (Mann-Whitney rank sum) vs saline controls (100 ug/kg days -1 to 20, day 24): 0.005
P, daily mucositis scores (Mann-Whitney rank sum) vs saline controls (100 ug/kg days -1 to 20, day 26): < 0.001
P, daily mucositis scores (Mann-Whitney rank sum) vs saline controls (100 ug/kg days -1 to 20, day 28): < 0.001
peak mean mucositis score (100 ug/kg from day -1 to day 20): 2.8
% of animal days with a mucositis score of 3 or higher (100 ug/kg on days -1 to 20): 29.2%
P, chi-squared test vs controls, days with score of 3 or higher (100 ug/kg on days -1 to 20): < 0.001
% Days >=3 (100 ug/kg): 29.2%
Days <3 (100 ug/kg): 170
Days >=3 (100 ug/kg): 70
P, daily mucositis scores (Mann-Whitney rank sum) vs saline controls (1 mg/kg days -1 to 20, day 6): 0.015
P, daily mucositis scores (Mann-Whitney rank sum) vs saline controls (1 mg/kg days -1 to 20, day 20): 0.029
P, daily mucositis scores (Mann-Whitney rank sum) vs saline controls (1 mg/kg days -1 to 20, day 22): 0.012
P, daily mucositis scores (Mann-Whitney rank sum) vs saline controls (1 mg/kg days -1 to 20, day 24): 0.001
P, daily mucositis scores (Mann-Whitney rank sum) vs saline controls (1 mg/kg days -1 to 20, day 26): 0.003
P, daily mucositis scores (Mann-Whitney rank sum) vs saline controls (1 mg/kg days -1 to 20, day 28): < 0.001
day of peak mean mucositis score (1 mg/kg from day -1 to day 20): 16
peak mean mucositis score (1 mg/kg from day -1 to day 20): 3.2
% Days >=3 (1 mg/kg): 30.8%
Days <3 (1 mg/kg): 166
Days >=3 (1 mg/kg): 74
Mucositis score, day 6 (Group 2 (SCV-07 10 μg/kg, day -1 to day 20), individual animal scores, two scores per animal, day 6): 0 (14×) and 1 (6×)
Mucositis score, day 8 (Group 2 (SCV-07 10 μg/kg, day -1 to day 20), individual animal scores, two scores per animal, day 8): 0 (18×) and 1 (2×)
severe mucositis, % of animals days evaluated (SCV-07 treated animals (all test groups), 50% in vehicle controls): approximately 30%
% of animal days with a mucositis score of 3 or higher [1]: 30.8%
P, chi-squared test vs controls, days with score of 3 or higher [1]: < 0.001
